Experimental data as given in ChEMBL document CHEMBL1127385, “Synthesis and diuretic activity of alkyl- and arylguanidine analogs of N,N'-dicyclohexyl-4-morpholinecarboxamidine in rats and dogs” (J Med Chem, 1994).

Assays:
Rattus norvegicus [1] = assay: Total electrolytic excretion of sodium in urine of rats after peroral administration of 21.7 uM/Kg of drug; assay type: ADME, organism-based; conditions: in vivo, po
Rattus norvegicus [2] = assay: Total electrolytic excretion of sodium in urine of rats after peroral administration of 217 uM/Kg of drug; assay type: ADME, organism-based; conditions: in vivo, po
Rattus norvegicus [3] = assay: Total electrolytic excretion of potassium in urine of rats after peroral administration of 65.2 uM/Kg of drug; assay type: ADME, organism-based; conditions: in vivo, po
Rattus norvegicus [4] = assay: Total electrolytic excretion of chlorine in urine of rats after peroral administration of 21.7 uM/Kg of drug; assay type: ADME, organism-based; conditions: in vivo, po
Rattus norvegicus [5] = assay: Total electrolytic excretion of chlorine in urine of rats after peroral administration of 217 uM/Kg of drug; assay type: ADME, organism-based; conditions: in vivo, po
Rattus norvegicus [6] = assay: Total electrolytic excretion of potassium in urine of rats after peroral administration of 21.7 uM/Kg of drug; assay type: ADME, organism-based; conditions: in vivo, po
Rattus norvegicus [7] = assay: Total electrolytic excretion of potassium in urine of rats after peroral administration of 217 uM/Kg of drug; assay type: ADME, organism-based; conditions: in vivo, po
Rattus norvegicus [8] = assay: Total electrolytic excretion of chlorine in urine of rats after peroral administration of 65.2 uM/Kg of drug; assay type: ADME, organism-based; conditions: in vivo, po
Rattus norvegicus [9] = assay: Tested for the diuretic activity by measuring the urinary volume after peroral administering 65.2 uM/Kg of drug in rats; assay type: ADME, organism-based, Urine; conditions: in vivo, po
Rattus norvegicus [10] = assay: Total electrolytic excretion of sodium in urine of rats after peroral administration of 65.2 uM/Kg of drug; assay type: ADME, organism-based; conditions: in vivo, po
Rattus norvegicus [11] = assay: Tested for the diuretic activity by measuring the urinary volume after peroral administering 21.7 uM/Kg of drug in rats; assay type: ADME, organism-based, Urine; conditions: in vivo, po
Rattus norvegicus [12] = assay: Tested for the diuretic activity by measuring the urinary volume after peroral administering 217 uM/Kg of drug in rats; assay type: ADME, organism-based, Urine; conditions: in vivo, po
Rattus norvegicus [13] = assay: Ratio of Total electrolytic excretion of sodium and potassium in urine of rats after peroral administration of 21.7 uM/Kg of drug; assay type: ADME, organism-based; conditions: in vivo, po
Rattus norvegicus [14] = assay: Ratio of Total electrolytic excretion of sodium and potassium in urine of rats after peroral administration of 217 uM/Kg of drug; assay type: ADME, organism-based; conditions: in vivo, po
Rattus norvegicus [15] = assay: Ratio of Total electrolytic excretion of sodium and potassium in urine of rats after peroral administration of 65.2 uM/Kg of drug; assay type: ADME, organism-based; conditions: in vivo, po
Rattus norvegicus [16] = assay: Total electrolytic excretion of chlorine in urine of rats after peroral administration of 58.4 uM/Kg of drug; assay type: ADME, organism-based; conditions: in vivo, po
Rattus norvegicus [17] = assay: Total electrolytic excretion of sodium in urine of rats after peroral administration of 19.5 uM/Kg of drug; assay type: ADME, organism-based; conditions: in vivo, po
Rattus norvegicus [18] = assay: Total electrolytic excretion of sodium in urine of rats after peroral administration of 195 uM/Kg of drug; assay type: ADME, organism-based; conditions: in vivo, po
Rattus norvegicus [19] = assay: Total electrolytic excretion of potassium in urine of rats after peroral administration of 58.4 uM/Kg of drug; assay type: ADME, organism-based; conditions: in vivo, po
Rattus norvegicus [20] = assay: Total electrolytic excretion of chlorine in urine of rats after peroral administration of 195 uM/Kg of drug; assay type: ADME, organism-based; conditions: in vivo, po
Rattus norvegicus [21] = assay: Total electrolytic excretion of potassium in urine of rats after peroral administration of 19.5 uM/Kg of drug; assay type: ADME, organism-based; conditions: in vivo, po
Rattus norvegicus [22] = assay: Total electrolytic excretion of potassium in urine of rats after peroral administration of 195 uM/Kg of drug; assay type: ADME, organism-based; conditions: in vivo, po
Rattus norvegicus [23] = assay: Ratio of Total electrolytic excretion of sodium and potassium in urine of rats after intravenous administration of 19.5 uM/Kg of drug; assay type: ADME, organism-based; conditions: in vivo
Rattus norvegicus [24] = assay: Tested for the diuretic activity by measuring the urinary volume after peroral administering 58.4 uM/Kg of drug in rats; assay type: ADME, organism-based, Urine; conditions: in vivo, po
Rattus norvegicus [25] = assay: Total electrolytic excretion of sodium in urine of rats after peroral administration of 58.4 uM/Kg of drug; assay type: ADME, organism-based; conditions: in vivo, po
Rattus norvegicus [26] = assay: Tested for the diuretic activity by measuring the urinary volume after peroral administering 19.5 uM/Kg of drug in rats; assay type: ADME, organism-based, Urine; conditions: in vivo, po
Rattus norvegicus [27] = assay: Tested for the diuretic activity by measuring the urinary volume after peroral administering 195 uM/Kg of drug in rats; assay type: ADME, organism-based, Urine; conditions: in vivo, po
Rattus norvegicus [28] = assay: Ratio of Total electrolytic excretion of sodium and potassium in urine of rats after peroral administration of 19.5 uM/Kg of drug; assay type: ADME, organism-based; conditions: in vivo, po
Rattus norvegicus [29] = assay: Ratio of Total electrolytic excretion of sodium and potassium in urine of rats after peroral administration of 195 uM/Kg of drug; assay type: ADME, organism-based; conditions: in vivo, po
Rattus norvegicus [30] = assay: Ratio of Total electrolytic excretion of sodium and potassium in urine of rats after intravenous administration of 5.84 uM/Kg of drug; assay type: ADME, organism-based; conditions: in vivo
Rattus norvegicus [31] = assay: Ratio of Total electrolytic excretion of sodium and potassium in urine of rats after peroral administration of 58.4 uM/Kg of drug; assay type: ADME, organism-based; conditions: in vivo, po
Rattus norvegicus [32] = assay: Total electrolytic excretion of chlorine in urine of rats after peroral administration of 19.5 uM/Kg of drug; assay type: ADME, organism-based; conditions: in vivo, po

Clc1ccc(CN/C(=N/C2CCCCC2)N2CCOCC2)cc1Cl
Excretion Na+ (Rattus norvegicus [1]): 0.96 m equiv | Excretion Na+ (Rattus norvegicus [2]): 1.59 m equiv | Excretion K+ (Rattus norvegicus [3]): 0.26 m equiv | Excretion Cl- (Rattus norvegicus [4]): 1.05 m equiv | Excretion Cl- (Rattus norvegicus [5]): 1.39 m equiv | Excretion K+ (Rattus norvegicus [6]): 0.25 m equiv | Excretion K+ (Rattus norvegicus [7]): 0.15 m equiv | Excretion Cl- (Rattus norvegicus [8]): 1.44 m equiv | V (Rattus norvegicus [9]): 9.3 mL | Excretion Na+ (Rattus norvegicus [10]): 1.55 m equiv | V (Rattus norvegicus [11]): 6.4 mL | V (Rattus norvegicus [12]): 8.7 mL | Ratio (Rattus norvegicus [13]): 3.8 | Ratio (Rattus norvegicus [14]): 10.9 | Ratio (Rattus norvegicus [15]): 5.9

C1CN(/C(=N\C23CC4CC(CC(C4)C2)C3)NC23CC4CC(CC(C4)C2)C3)CCO1
Excretion Cl- (Rattus norvegicus [16]): 1.97 m equiv | Excretion Na+ (Rattus norvegicus [17]): 1.51 m equiv | Excretion Na+ (Rattus norvegicus [18]): 1.9 m equiv | Excretion K+ (Rattus norvegicus [19]): 0.27 m equiv | Excretion Cl- (Rattus norvegicus [20]): 1.66 m equiv | Excretion K+ (Rattus norvegicus [21]): 0.23 m equiv | Excretion K+ (Rattus norvegicus [22]): 0.25 m equiv | Ratio (Rattus norvegicus [23]): 6.8 | V (Rattus norvegicus [24]): 12.8 mL | Excretion Na+ (Rattus norvegicus [25]): 2.04 m equiv | V (Rattus norvegicus [26]): 10.1 mL | V (Rattus norvegicus [27]): 10.9 mL | Ratio (Rattus norvegicus [28]): 6.6 [Na+]/[K+] | Ratio (Rattus norvegicus [29]): 7.6 [Na+]/[K+] | Ratio (Rattus norvegicus [30]): 8 [Na+]/[K+] | Ratio (Rattus norvegicus [31]): 7.5 [Na+]/[K+] | Excretion Cl- (Rattus norvegicus [32]): 1.52 m equiv
